Experimental data published in paper PMC5285354, “Cationic Net Charge and Counter Ion Type as Antimicrobial Activity Determinant Factors of Short Lipopeptides” (Frontiers in Microbiology, 2017).
Converted amounts (≈) assume the structure as drawn. Where a SMILES comes first, the peptide text is derived from it. The star is where a group is joined. Palmitoyl = CCCCCCCCCCCCCCCC(=O)*

Columns and labels:
Assay type in all cases: cell-based
[1] = test system: Aspergillus brasiliensis (ATCC 16404); settings: ATCC 16404, 48 h
Outline: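 Lowest lipopeptide concentration (μg/mL) with no observable growth gave the MIC, alongside MBC/MFC, by CLSI microbroth dilution. Fungi: Sabouraud dextrose broth, 10^3 cfu/mL start, 25°C for 48 h; bacteria: MH broth, 10^5 cfu/mL, 37°C for 18 h. Run in triplicate, three separate days.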

[2] = test system: Bacillus subtilis (ATCC 6633); settings: for MIC Bacillus subtillis: ATCC 6633, 18 h; for MBC Bacillus subtillis: ATCC 6633, 24 h
Outline: (§1)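 Broth microdilution per CLSI: Mueller-Hinton broth, 10^5 cfu/mL inoculum, 18 h at 37°C for bacteria; Sabouraud dextrose broth, 10^3 cfu/mL, 48 h at 25°C for fungi. MIC (μg/mL) is the lowest lipopeptide concentration inhibiting visible growth; MBC/MFC also determined. Triplicate on three days.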

[3] = test system: Candida albicans (ATCC 10231); settings: ATCC 10231, 48 h
Outline: (§2)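 CLSI broth microdilution: bacteria in Mueller-Hinton broth at 10^5 cfu/mL inoculum, 18 h at 37°C; fungi in Sabouraud Dextrose broth at 10^3 cfu/mL, 48 h at 25°C. MIC (μg/mL) is the lowest lipopeptide concentration inhibiting visible growth; triplicate on three days.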

[4] = test system: Candida tropicalis (PCM 2681); settings: PCM 2681, 48 h
Outline: as §2

[5] = test system: Enterococcus faecalis (ATCC 29212); settings: for MBC Enterococcus fecalis, lipopeptides without TFA counter ion / MIC Enterococcus fecalis / MIC Enterococcus fecalis, lipopeptides without TFA counter ion: ATCC 29212, 18 h; for MBC Enterococcus fecalis: ATCC 29212, 24 h
Outline: as §1

[6] = test system: Escherichia coli (ATCC 25922); settings: for MBC Escherichia coli, lipopeptides without TFA counter ion / MIC Escherichia coli / MIC Escherichia coli, lipopeptides without TFA counter ion: ATCC 25922, 18 h; for MBC Escherichia coli: ATCC 25922, 24 h
Outline: as §2

[7] = test system: Klebsiella pneumoniae (ATCC 700603); settings: for MBC Klebsiella pneumoniae, lipopeptides without TFA counter ion / MIC Klebsiella pneumoniae / MIC Klebsiella pneumoniae, lipopeptides without TFA counter ion: ATCC 700603, 18 h; for MBC Klebsiella pneumoniae: ATCC 700603, 24 h
Outline: as §2

[8] = test system: Proteus vulgaris (PCM 2668); settings: 18 h
Outline: as §2

[9] = test system: Pseudomonas aeruginosa (ATCC 9027); settings: ATCC 9027, 18 h
Outline: as §2

[10] = test system: Staphylococcus aureus (ATCC 25923); settings: for MBC Staphylococcus aureus, lipopeptides without TFA counter ion / MIC Staphylococcus aureus / MIC Staphylococcus aureus, lipopeptides without TFA counter ion: ATCC 25923, 18 h; for MBC Staphylococcus aureus: ATCC 25923, 24 h
Outline: as §2

[11] = test system: Staphylococcus epidermidis (PCM 2118); settings: for MIC Staphylococcus epidermidis: PCM 2118, 18 h; for MBC Staphylococcus epidermidis: PCM 2118, 24 h
Outline: as §1

human red blood cells = settings: 1 h
Procedure: The hemolytic activity of the lipopeptides was determined by exposing human red blood cells (4% v/v) to tested compounds at graded concentrations. Red blood cells were obtained from a healthy donor. EDTA was used to prevent the blood clotting. The plasma was removed via centrifugation and the erythrocytes were washed three times with PBS. The red blood cells were suspended in PBS and incubated with different concentrations of lipopeptides at 37°C for 1 h and centrifuged for 5 min at 1000 × g. The supernatants were transferred to a sterile 96-well plate and hemoglobin release was measured with an Epoch microplate spectrophotometer (BioTek, USA) by recording the absorbance at 550 nm. A 0.1% Triton X-100 solution was used as the positive control (100% of hemolysis) and pure PBS as the negative (0% of hemolysis). Minimum hemolytic concentration (MHC) was taken as the lowest concentration which induced 10% of hemolysis.

[12] = test system: Pseudomonas aeruginosa (ATCC 9027); settings: ATCC 9027, 24 h
[13] = test system: Proteus vulgaris (PCM 2668); settings: 24 h
[14] = test system: Candida albicans (ATCC 10231)

MIC Aspergillus brasiliensis [1] [µg/mL]	MIC Bacillus subtillis [2] [µg/mL]	MIC Candida albicans [3] [µg/mL]	MIC Candida tropicalis [4] [µg/mL]	MIC Enterococcus fecalis [5] [µg/mL]	MIC Escherichia coli [6] [µg/mL]	MIC Klebsiella pneumoniae [7] [µg/mL]	SMILES	MFC Aspergillus brasiliensis [1] [µg/mL]	MBC Bacillus subtillis [2] [µg/mL]	MFC Candida albicans [3] [µg/mL]	MIC Candida albicans, lipopeptides without TFA counter ion [3] [µg/mL]	MFC Candida tropicalis [4] [µg/mL]	MBC Enterococcus fecalis, lipopeptides without TFA counter ion [5] [µg/mL]	MIC Enterococcus fecalis, lipopeptides without TFA counter ion [5] [µg/mL]	MBC Enterococcus fecalis [5] [µg/mL]	MBC Escherichia coli, lipopeptides without TFA counter ion [6] [µg/mL]	MIC Escherichia coli, lipopeptides without TFA counter ion [6] [µg/mL]	MBC Escherichia coli [6] [µg/mL]	MBC Klebsiella pneumoniae, lipopeptides without TFA counter ion [7] [µg/mL]	MIC Klebsiella pneumoniae, lipopeptides without TFA counter ion [7] [µg/mL]	other results
64 (≈ 105 µM)	4 (≈ 6.54 µM)	128 (≈ 209 µM)	128 (≈ 209 µM)	64 (≈ 105 µM)	128 (≈ 209 µM)	128 (≈ 209 µM)	CCCCCCCCCCCCCC(=O)N[C@@H](CCCCN)C(=O)N[C@@H](CCCCN)C(=O)N[C@@H](CCCCN)C(N)=O [C14-KKK-NH2]	64 (≈ 105 µM)	4 (≈ 6.54 µM)	128 (≈ 209 µM)	256 (≈ 418 µM)	128 (≈ 209 µM)	64 (≈ 105 µM)	32 (≈ 52.3 µM)	64 (≈ 105 µM)	128 (≈ 209 µM)	128 (≈ 209 µM)	128 (≈ 209 µM)	256 (≈ 418 µM)	128 (≈ 209 µM)	MBC Klebsiella pneumoniae [7]: 128 µg/mL (≈ 209 µM); MIC Proteus vulgaris [8]: >512 µg/mL; MIC Pseudomonas aeruginosa [9]: 32 µg/mL (≈ 52.3 µM); MBC Staphylococcus aureus, lipopeptides without TFA counter ion [10]: 32 µg/mL (≈ 52.3 µM); MIC Staphylococcus aureus [10]: 64 µg/mL (≈ 105 µM); MIC Staphylococcus aureus, lipopeptides without TFA counter ion [10]: 32 µg/mL (≈ 52.3 µM); MBC Staphylococcus aureus [10]: 64 µg/mL (≈ 105 µM); MIC Staphylococcus epidermidis [11]: 8 µg/mL (≈ 13.1 µM); MBC Staphylococcus epidermidis [11]: 8 µg/mL (≈ 13.1 µM); Hemolysis HC10 (MHC), concentration of lipopeptide inducing 10% of hemolysis (human red blood cells): 256 µg/mL; MBC Pseudomonas aeruginosa [12]: 128 µg/mL (≈ 209 µM); MBC Proteus vulgaris [13]: >512 µg/mL; MFC Candida albicans, lipopeptides without TFA counter ion [14]: 256 µg/mL (≈ 418 µM)
128 (≈ 225 µM)	4 (≈ 7.03 µM)	128 (≈ 225 µM)	256 (≈ 450 µM)	8 (≈ 14.1 µM)	8 (≈ 14.1 µM)	16 (≈ 28.1 µM)	CCCCCCCCCCCCCCCC(=O)N[C@@H](CCCCN)C(=O)NCC(=O)N[C@@H](CCCCN)C(N)=O [C16-KGK-NH2] (Palmitoyl-Lys-Gly-Lys-NH2)	128 (≈ 225 µM)	4 (≈ 7.03 µM)	128 (≈ 225 µM)	128 (≈ 225 µM)	256 (≈ 450 µM)	4 (≈ 7.03 µM)	4 (≈ 7.03 µM)	16 (≈ 28.1 µM)	4 (≈ 7.03 µM)	4 (≈ 7.03 µM)	8 (≈ 14.1 µM)	64 (≈ 113 µM)	32 (≈ 56.3 µM)	MBC Klebsiella pneumoniae [7]: 16 µg/mL (≈ 28.1 µM); MIC Proteus vulgaris [8]: >512 µg/mL; MIC Pseudomonas aeruginosa [9]: 16 µg/mL (≈ 28.1 µM); MBC Staphylococcus aureus, lipopeptides without TFA counter ion [10]: 4 µg/mL (≈ 7.03 µM); MIC Staphylococcus aureus [10]: 8 µg/mL (≈ 14.1 µM); MIC Staphylococcus aureus, lipopeptides without TFA counter ion [10]: 4 µg/mL (≈ 7.03 µM); MBC Staphylococcus aureus [10]: 8 µg/mL (≈ 14.1 µM); MIC Staphylococcus epidermidis [11]: 4 µg/mL (≈ 7.03 µM); MBC Staphylococcus epidermidis [11]: 4 µg/mL (≈ 7.03 µM); Hemolysis HC10 (MHC), concentration of lipopeptide inducing 10% of hemolysis (human red blood cells): 64 µg/mL; MBC Pseudomonas aeruginosa [12]: 32 µg/mL (≈ 56.3 µM); MBC Proteus vulgaris [13]: >512 µg/mL; MFC Candida albicans, lipopeptides without TFA counter ion [14]: 128 µg/mL (≈ 225 µM)
>512	8 (≈ 20.9 µM)	512 (≈ 1330 µM)	>512	32 (≈ 83.4 µM)	512 (≈ 1330 µM)	512 (≈ 1330 µM)	CCCCCCCCCCCCCCCC(=O)N[C@@H](CCCCN)C(N)=O [C16-K-NH2]	>512	8 (≈ 20.9 µM)	512 (≈ 1330 µM)	512 (≈ 1330 µM)	>512	32 (≈ 83.4 µM)	32 (≈ 83.4 µM)	64 (≈ 167 µM)	512 (≈ 1330 µM)	512 (≈ 1330 µM)	>512	512 (≈ 1330 µM)	512 (≈ 1330 µM)	MBC Klebsiella pneumoniae [7]: >512 µg/mL; MIC Proteus vulgaris [8]: >512 µg/mL; MIC Pseudomonas aeruginosa [9]: 512 µg/mL (≈ 1330 µM); MBC Staphylococcus aureus, lipopeptides without TFA counter ion [10]: 128 µg/mL (≈ 334 µM); MIC Staphylococcus aureus [10]: 512 µg/mL (≈ 1330 µM); MIC Staphylococcus aureus, lipopeptides without TFA counter ion [10]: 128 µg/mL (≈ 334 µM); MBC Staphylococcus aureus [10]: 512 µg/mL (≈ 1330 µM); MIC Staphylococcus epidermidis [11]: 8 µg/mL (≈ 20.9 µM); MBC Staphylococcus epidermidis [11]: 16 µg/mL (≈ 41.7 µM); Hemolysis HC10 (MHC), concentration of lipopeptide inducing 10% of hemolysis (human red blood cells): 512 µg/mL; MBC Pseudomonas aeruginosa [12]: >512 µg/mL; MBC Proteus vulgaris [13]: >512 µg/mL; MFC Candida albicans, lipopeptides without TFA counter ion [14]: 512 µg/mL (≈ 1330 µM)
128 (≈ 200 µM)	8 (≈ 12.5 µM)	128 (≈ 200 µM)	128 (≈ 200 µM)	16 (≈ 25 µM)	8 (≈ 12.5 µM)	4 (≈ 6.25 µM)	CCCCCCCCCCCCCCCC(=O)N[C@@H](CCCCN)C(=O)N[C@@H](CCCCN)C(=O)N[C@@H](CCCCN)C(N)=O [C16-KKK-NH2]	128 (≈ 200 µM)	8 (≈ 12.5 µM)	128 (≈ 200 µM)	128 (≈ 200 µM)	128 (≈ 200 µM)	8 (≈ 12.5 µM)	8 (≈ 12.5 µM)	16 (≈ 25 µM)	8 (≈ 12.5 µM)	4 (≈ 6.25 µM)	16 (≈ 25 µM)	4 (≈ 6.25 µM)	4 (≈ 6.25 µM)	MBC Klebsiella pneumoniae [7]: 4 µg/mL (≈ 6.25 µM); MIC Proteus vulgaris [8]: >512 µg/mL; MIC Pseudomonas aeruginosa [9]: 8 µg/mL (≈ 12.5 µM); MBC Staphylococcus aureus, lipopeptides without TFA counter ion [10]: 8 µg/mL (≈ 12.5 µM); MIC Staphylococcus aureus [10]: 8 µg/mL (≈ 12.5 µM); MIC Staphylococcus aureus, lipopeptides without TFA counter ion [10]: 4 µg/mL (≈ 6.25 µM); MBC Staphylococcus aureus [10]: 8 µg/mL (≈ 12.5 µM); MIC Staphylococcus epidermidis [11]: 4 µg/mL (≈ 6.25 µM); MBC Staphylococcus epidermidis [11]: 4 µg/mL (≈ 6.25 µM); MBC Pseudomonas aeruginosa [12]: 8 µg/mL (≈ 12.5 µM); MBC Proteus vulgaris [13]: >512 µg/mL; MFC Candida albicans, lipopeptides without TFA counter ion [14]: 128 µg/mL (≈ 200 µM)
